From ChEMBL document CHEMBL3228010, “Potential antitumor agents. 29. Quantitative structure-activity relationships for the antileukemic bisquaternary ammonium heterocycles” (J Med Chem, 1979)

Legend:
[1] = Displacement of ethidium from poly[d(G-C)]-poly[d(G-C)] DNA (unknown origin) by fluorimetric method
[2] = Lipophilic-hydrophilic balance, Rm of the compound by partition chromatography; type: physicochemical
[3] = test system: L1210; assay: Antitumor activity against mouse L1210 cells […] in ip dosed C3H X DBA2 F1 hybrid mouse on day 0 and dosed at LD10 level once daily on days 1 to 5 assessed as increase in life span relative to control; type: functional
[4] = test system: L1210; assay: Antitumor activity against mouse L1210 cells […] in ip dosed C3H X DBA2 F1 hybrid mouse on day 0 and dosed once daily on days 1 to 5 assessed as increase in life span relative to control; type: functional
[5] = test system: Mus musculus; assay: Toxicity in ip dosed C3H X DBA2 F1 hybrid mouse […] with mouse L1210 cells on day 0 and dosed once daily on days 1 to 5 measured after 50 days; type: organism-based; details: in vivo, 1200 h
[6] = Displacement of ethidium from poly[d(A-T)]-poly[d(A-T)] DNA by fluorimetric method
[7] = species on record: Bos taurus; assay: Displacement of ethidium from calf thymus DNA by fluorimetric method

| SMILES | C50 [1] | Rm [2] | log(ILSmax) [3] | D40 [4] | LD10 [5] | C50 [6] | C50 [7] |
| --- | --- | --- | --- | --- | --- | --- | --- |
| C[n+]1ccc(Nc2ccc(/C=C/c3ccc(Nc4cc[n+](C)c5ccc(N)cc45)cc3)cc2)cc1.[Br-].[Br-] | 0.53 µM | 0.31 | 2.19 | 1.8 mg/kg | 16 mg/kg | 0.15 µM | 0.38 µM |
| C[n+]1ccc(-c2ccc(-c3ccc(-c4ccc(NC(=O)c5ccc(C(=O)Nc6ccc(-c7ccc(-c8ccc(-c9cc[n+](C)cc9)cc8)cc7)cc6)cc5)cc4)cc3)cc2)cc1.Cc1ccc(S(=O)(=O)[O-])cc1.Cc1ccc(S(=O)(=O)[O-])cc1 | 1.15 µM | -0.3 | 2.28 | 22 mg/kg | 110 mg/kg | 0.4 µM | 0.55 µM |
| C[n+]1cccc(NC(=O)c2ccc(NC(=O)c3ccc(C(=O)Nc4ccc(C(=O)Nc5ccc[n+](C)c5)cc4)c(Cl)c3)cc2)c1.Cc1ccc(S(=O)(=O)[O-])cc1.Cc1ccc(S(=O)(=O)[O-])cc1 | 2 µM | 0.05 | 2.11 | 5.6 mg/kg | 30 mg/kg | 0.95 µM | 1 µM |
| Br.C/C(=N\NC(=N)N)c1ccc(NC(=O)Nc2ccc(Nc3cc[n+](C)c4ccc(N)cc34)cc2)cc1.[Br-] | 0.53 µM | -0.15 | 2.2 | 18.5 mg/kg | 150 mg/kg | 0.25 µM | 0.42 µM |
| CC[n+]1ccc(Nc2ccc(NC(=O)c3ccc(Nc4cc[n+](CC)c5ccccc45)cc3)cc2)cc1.[Br-].[Br-] | 3.1 µM | 0.54 | 2.07 | 2.8 mg/kg | 15 mg/kg | 0.19 µM | 2 µM |
| C[n+]1ccc(Nc2ccc(/C=C/c3ccc(Nc4cc[n+](C)c5ccccc45)cc3)cc2)cc1.[Br-].[Br-] | 0.67 µM | 0.61 | 1.89 | 12 mg/kg | 23 mg/kg | 0.13 µM | 0.34 µM |
| C[n+]1cccc(NC(=O)c2ccc(NC(=O)c3ccc(C(=O)Nc4ccc(NC(=N)NC(=N)N)cc4)cc3)cc2)c1.I.[I-] | 1.71 µM | -0.4 | 2.2 | 1 mg/kg | 11 mg/kg | 0.77 µM | 1.14 µM |
| C/C(=N\NC(=N)N)c1ccc(NC(=O)c2ccc(Nc3cc[n+](C)c4cc([N+](=O)[O-])ccc34)cc2)cc1.Cl.[Cl-] | 0.74 µM | -0.24 | 2.18 | 5.9 mg/kg | 56 mg/kg | 0.13 µM | 0.2 µM |
| CC(=O)Nc1ccc2c(Nc3ccc(NC(=O)c4ccc(Nc5cc[n+](C)cc5)cc4)cc3)cc[n+](C)c2c1.Cc1ccc(S(=O)(=O)[O-])cc1.Cc1ccc(S(=O)(=O)[O-])cc1 | 0.53 µM | -0.1 | 2.26 | 10 mg/kg | 97 mg/kg | 0.13 µM | 0.34 µM |
| C[n+]1cccc2cc(NC(=O)c3ccc(C(=O)Nc4ccc(NC(=O)c5ccc6c(ccc[n+]6C)c5)cc4)cc3)ccc21.Cc1ccc(S(=O)(=O)[O-])cc1.Cc1ccc(S(=O)(=O)[O-])cc1 | 0.8 µM | -0.57 | 1.65 | 80 mg/kg | 90 mg/kg | 0.35 µM | 0.3 µM |
| C[n+]1ccc(Nc2ccc(NC(=O)c3ccc(Nc4cc[n+](C)c5cc(Cl)ccc45)cc3)cc2)cc1.[Br-].[Br-] | 2.27 µM | 0.31 | 1.97 | 12 mg/kg | 39 mg/kg | 0.21 µM | 1 µM |
| C/C(=N\NC(=N)N)c1ccc(NC(=O)Nc2ccc(Nc3c4ccccc4[n+](C)c4cc(N)ccc34)cc2)cc1.Cl.[Cl-] | 0.2 µM | 0.69 | 2.55 | 0.3 mg/kg | 22 mg/kg | 0.09 µM | 0.13 µM |
| C[n+]1ccc(Nc2ccc(NC(=O)c3ccc(Nc4cc[n+](C)c5cc(N)ccc45)cc3)cc2)cc1.[Br-].[Br-] | 1.4 µM | 0.08 | 2.11 | 2 mg/kg | 11 mg/kg | 0.23 µM | 0.68 µM |
| C[n+]1ccc(Nc2ccc(C(=O)Nc3ccc(Nc4c5ccccc5[n+](C)c5cc(N)ccc45)cc3)cc2)cc1.[Cl-].[Cl-] | 0.16 µM | 0.47 | 2.23 | 2 mg/kg | 37 mg/kg | 0.06 µM | 0.11 µM |
